Measurements published in article PMC7672604, “Design, Synthesis, Molecular Docking, Antiapoptotic and Caspase-3 Inhibition of New 1,2,3-Triazole/Bis-2(1H)-Quinolinone Hybrids” (Molecules, 2020).

Columns and labels:
caspase-3 = test: Caspase-3 level in serum of testicular I/R rats (ELISA); type: in vivo; conditions: mean ± S.E.M, n=6
Protocol: (§1) This section describes the methods used in the investigation of the antiapoptotic effect of the novel compounds 6a–g then supported by further histological and molecular docking studies. The antiapoptotic effect of 6a–g was evaluated through evaluation of decreasing tissue damage induced by I/R in the testis of rats in a dose equivalent to 30 mg N-acetylcysteine (NAC) as an antiapoptotic reference. The rats were subdivided into sham, I/R, NAC and treated with tested compounds groups, each group comprises of 6 rats (weighing 140–150 g). The targeted compounds 6a–g were administrated intra-peritoneal (i.p.) an hour before ischemia, which lasted for (0.5 h) then reperfusion (1 h) followed by cutting the organ (Figure 5). Different biomarkers concentrations were measured in serum to detect testis injury due to ischemia/reperfusion (I/R).
[…], implicating a potential role in drug screening efforts. Therefore, we studied the mechanism of the caspase-3 inhibition activity. Caspase-3 was assayed in the serum of rats treated with 6a–g in comparison with sham and the NAC treated group, as shown in Table S5 (Supplementary Materials).
(§2) TNF-α was measured by ELISA kit (Elabscience, Houston, TX, USA). Caspase-3 was measured by ELISA kit Cusabio, Houston, TX, USA (See Supplementary Materials). Testosterone concentration in testicular samples was determined by the ELISA kit (“DRG”, Marburg, Germany) (See Supplementary Materials).

testis of I/R rats [1] = test: Testicular TAC in testis of I/R rats; type: in vivo; conditions: i.p. 1 h before ischemia, dose equivalent to 30 mg NAC, mean ± S.E.M, n=6
Protocol: as §1
(§3) During the long testicular torsion, oxidation damage affects the testis by the production of the reactive oxygen species (ROS). Excessive generation of the ROS interacts with lipids, proteins, and nucleic acids, which has an adverse effect on cell function and damage. The testis has high cell metabolism such that excessive ROS production weakens antioxidant capacity. Malondialdehyde (MDA) is the end product of lipid peroxidation and increased MDA level has an adverse effect on sperm fertility. Furthermore, total antioxidant capacity (TAC) is the measure of the number of free radicals scavenged by a test solution, being used to evaluate the antioxidant capacity of biological samples [55]. The data collected in Table S3 (Supplementary Materials) have identified that there was a significant increase in testicular MDA with a significant decrease in testicular TAC in the I/R group as well as compounds 6d and 6f when compared to sham control and NAC groups. These findings indicate that both 6d and 6f are the worst antiapoptotic compounds compound amongst all the synthesized compounds.
TAC was assessed by the colorimetric technique using commercial kits (El-Minia, Egypt) (See Supplementary Materials). Testicular MDA, an index of lipid peroxidation, was determined by using 1,1,3,3-tetramethoxypropane as standard (See Supplementary Materials). […]
1.3.Determination of Total Antioxidant Capacity (Testicular tissue)
Free radicals or reactive oxygen species (ROS) are produced during biochemical redox reactions as part
of normal physiological cell metabolism (protection from infectious organisms) and as a response to
environmental factors such as UV light, cigarette smoke, environmental pollutants, and g-radiation. Once
formed, ROS attack cellular components causing damage to lipids, proteins, and DNA which can initiate
Antioxidants in the sample reduce dark blue-green colored ABTS radical to colorless reduced ABTS
form. The change of absorbance at 660 nm is related with total antioxidant level of the sample. The assay
is calibrated with a stable antioxidant standard solution which is traditionally named as Trolox
Equivalent that is a vitamin E analog.
The determination of the antioxidative capacity is performed by the reaction of antioxidants in the
sample with a defined amount of exogenously provide hydrogen peroxide (H2O2) The antioxidants in the
sample eliminate a certain amount of the provided hydrogen peroxide. The residual H2O2 is determined
(1 picture or pasted object on this page, not shown here)
colorimetrically by an enzymatic reaction which involves the conversion of 3,5,dichloro–2–hydroxy
benzensulphonate to a colored product.
* Dilute R11000 times immediately before use (10 μl R1 + 10 ml d. Water mix Discard after use.
*Working Reagent: mix equal volumes of R2 and R3 immediately before use.
*Dilute sample if necessary
Total Antioxidant concentration […]

testis of I/R rats [2] = test: TNFα in testis of I/R rats (ELISA); type: in vivo; conditions: i.p. 1 h before ischemia, dose equivalent to 30 mg NAC, mean ± S.E.M, n=6
Protocol: as §1
(§4) It was reported that excessive apoptosis in the testis could damage the Leydig cells and apparent decline in serum testosterone levels. Furthermore, excessive apoptosis of Leydig cells results in decreased testosterone. The assays of the apoptotic biomarkers (testicular testosterone and TNFα) were done in comparison with the sham and NAC treated group and the results were outlined in Table S4 (Supplementary Materials).
as §2

testis of I/R rats [3] = test: Testicular testosterone in testis of I/R rats (ELISA); type: in vivo; set-up: unit not given here; conditions: i.p. 1 h before ischemia, dose equivalent to 30 mg NAC, mean ± S.E.M, n=6
Protocol: as §1, §4, §2
1.2.Determination of serum testosterone using ELISA kit
This ELISA kit uses the Competitive-ELISA principle. The micro ELISA plate provided in this kit has been pre-coated with T. During the reaction, T in the sample or standard competes with a fixed amount of T on the solid phase supporter for sites on the Biotinylated Detection Ab specific to T. Excess conjugate and unbound sample or standard are washed from the plate, and Avidin conjugated to Horseradish Peroxidase (HRP) are added to each microplate well and incubated. Then a TMB substrate solution is added to each well. The enzyme-substrate reaction is terminated by the addition of stop solution and the color change is measured spectrophotometrically at a wavelength of 450 nm ± 2 nm. The concentration of T in the samples is then determined by comparing the OD of the samples to the standard […]
Serum: Allow samples to clot for 2 hours at room temperature or overnight at 4℃ before centrifugation for 20 min at 1000×g at 2-8℃. Collect the supernatant to carry out the assay. Blood collection tubes should be disposable and be non-endotoxin. […]
1. Bring all reagents to room temperature (18~25℃) before use. Follow the Microplate reader manual for set-up and preheat it for 15 min before OD measurement.
2. Wash Buffer: Dilute 30 mL of Concentrated Wash Buffer with 720 mL of deionized or distilled water to prepare 750 mL of Wash Buffer. Note: if crystals have formed in the concentrate, warm it in a 40℃ water-bath and mix it gently until the crystals have completely dissolved.
3. Standard working solution: Centrifuge the standard at 10,000×g for 1min. Add 1.0mL of Reference Standard &Sample Diluent, let it stand for 10min and invert it gently several times. After it dissolves fully, mix it thoroughly with a pipette. This reconstitution produces a working solution of 20 ng/mL. Then make serial dilutions as needed. The recommended dilution gradient is as […]
Dilution method: Take 7 EP tubes, add 500uL of Reference Standard & Sample Diluent to each tube. Pipette 500uL of the 20 ng/mL working solution to the first tube and mix up to produce a 10 ng/mL working solution. Pipette 500uL of the solution from the former tube to the latter one according to this step. The illustration below is for reference. Note: the last tube is regarded as a blank. Don’t pipette solution into it from the former tube.

testis of I/R rats [4] = test: Testicular MDA in testis of I/R rats; type: in vivo; conditions: i.p. 1 h before ischemia, dose equivalent to 30 mg NAC, mean ± S.E.M, n=6
Protocol: as §1, §3
TAC was assessed by the colorimetric technique using commercial kits (El-Minia, Egypt) (See Supplementary Materials). Testicular MDA, an index of lipid peroxidation, was determined by using 1,1,3,3-tetramethoxypropane as standard (See Supplementary Materials).

Compound	Caspase-3 level (caspase-3) [ng/mL]	Testicular TAC (testis of I/R rats [1]) [mmol/g tissue]	TNF-α (testis of I/R rats [2]) [pg/mL]	Testicular testosterone (testis of I/R rats [3])	melting point [°C]	Testicular MDA (testis of I/R rats [4]) [nmol/g tissue]
O=c1cc(OCc2cn(-c3cc(=O)[nH]c4ccccc34)nn2)c2ccccc2[nH]1 [6a, 4-((1-(2-Oxo-1,2-dihydroquinolin-4-yl)-1H-1,2,3-triazol-4-yl)methoxy)quinolin-2(1H)-one]	2.66 ± 0.21	5.48±0.41	106.40 ± 4.44	4.93±0.38	300 to 302	62.38±4.23
Cc1ccc2[nH]c(=O)cc(-n3cc(COc4cc(=O)[nH]c5ccccc45)nn3)c2c1 [6b, 6-Methyl-4-(4-(((2-oxo-1,2-dihydroquinolin-4-yl)oxy)methyl)-1H-1,2,3-triazol-1-yl)quinolin-2(1H)-one]	2.94 ± 0.28	4.62±0.33	107.90 ± 2.96	5.07±0.45	298	61.84±4.77
